Literature values, collected in patent US20230364026A1, “[…] NANOPARTICLE FORMULATIONS OF CANNABINOIDS AND C[…] WITH REDUCED OSTWALD RIPENING FOR ORAL, INHALATION, NASAL AND […] DELIVERY” (Luminus Biosciences, Inc., priority 2020, published 2023).

How the values were obtained:
[1] = self-experiment, compared to THC
[2] = pH values ranging from 1.2 to 7.0
[3] = administered orally, human gastrointestinal tract

| Compound | duration of effects in humans [1] [h] | solubility in water [2] | oral absorption [3] |
| --- | --- | --- | --- |
| CCCCCCCC(C)(C)c1ccc([C@H]2CCC[C@@H](O)C2)c(O)c1 [CP 47,497-C8] | 5 to 6 |  |  |
| CCCCCn1cc(C(=O)c2cccc3ccccc23)c2ccccc21 [JWH-018] | 1 to 2 |  |  |
| CCCCCCC(C)(C)c1cc(O)c2c(c1)OC(C)(C)C1CCC(=O)CC21 (racemic) [Nabilone, (±)-trans-3-(1,1-dimethylheptyl)-6,6a,7,8,10,10a-hexahydro-1-hydroxy-6-6-dimethyl-9H-dibenzo[b,d] pyran-9-one] |  | less than 0.5 mg/L | completely absorbed |
